# Laboratory results published in patent US6355799B1, “Substituted benzene compounds, process for their preparation, and herbicidal and defoliant compositions containing them” (ISK Americas Incorporated, priority 1997, dated 2002).
# Columns and labels:
# Assay type in all cases: in vivo
# [1] = system: redroot pigweed (Amaranthus retroflexus, AMARE); assay: Pre-emerge test, greenhouse herbicide activity screening; details: pre-emerge, rated 14 days after application, 0 = no damage, 100 = complete death
# Method in brief: (§1)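 Compounds in acetone were track-sprayed at 15-1000 g ai/ha (187 l/ha) on sandy loam pots: pre-emerge one day after seeding, post-emerge at 2-3 leaf stage with 0.25% v/v non-ionic surfactant. Phytotoxicity was rated 14 days later on a 0 (no damage) to 100 (complete death) scale.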
# [2] = system: barnyardgrass (Echinochloa crus-galli, ECHCG); assay: as above; details: pre-emerge, rated 14 days after application, 0 = no damage, 100 = complete death
# Method in brief: as §1
# [3] = system: green foxtail (Setaria viridis, SETVI); assay: as above; details: pre-emerge, rated 14 days after application, 0 = no damage, 100 = complete death
# Method in brief: as §1
# [4] = system: ivyleaf morningglory (Ipomoea hederacea, IPOHE); assay: as above; details: pre-emerge, rated 14 days after application, 0 = no damage, 100 = complete death
# Method in brief: as §1
# [5] = system: johnsongrass (Sorghum halepense, SORHA); assay: as above; details: pre-emerge, rated 14 days after application, 0 = no damage, 100 = complete death
# Method in brief: as §1
# [6] = system: lambsquarters (Chenopodium album, CHEAL); assay: as above; details: pre-emerge, rated 14 days after application, 0 = no damage, 100 = complete death
# Method in brief: as §1
# [7] = system: large crabgrass (Digitaria sanguinalis, DIGSA); assay: as above; details: pre-emerge, rated 14 days after application, 0 = no damage, 100 = complete death
# Method in brief: as §1
# [8] = system: sicklepod (Cassia obtusifolia, CASOB); assay: as above; details: pre-emerge, rated 14 days after application, 0 = no damage, 100 = complete death
# Method in brief: as §1
# [9] = system: velvetleaf (Abutilon theophrasti, ABUTH); assay: as above; details: pre-emerge, rated 14 days after application, 0 = no damage, 100 = complete death
# Method in brief: as §1
# [10] = system: field corn (Zea mays L., var. Dekalb 535, CORN); assay: Pre-emerge test, crop safety; details: pre-emerge, rated 14 days after application, 0 = no damage, 100 = complete death
# Method in brief: (§2)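 Herbicidal damage is scored 0 (none) to 100 (complete plant death) two weeks after a simulated field spray. Rates span 15–1000 g ai/ha, delivered in acetone at 187 l/ha. For post-emergence treatments, plants have 2–3 leaves and the spray carries 0.25% v/v non-ionic surfactant.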
# [11] = system: upland rice (Oryza sp., var. Tebonnet, RICE); assay: Pre-emerge test, crop safety; details: pre-emerge, rated 14 days after application, 0 = no damage, 100 = complete death
# Method in brief: as §2
# [12] = system: barnyardgrass (Echinochloa crus-galli, ECHCG); assay: Post-emerge test, greenhouse herbicide activity screening; details: phytotoxicity rating 0-100 (0 no damage, 100 complete death), 14 days after application
# Method in brief: as §2
# [13] = system: green foxtail (Setaria viridis, SETVI); assay: as above; details: phytotoxicity rating 0-100 (0 no damage, 100 complete death), 14 days after application
# Method in brief: as §2
# [14] = system: ivyleaf morningglory (Ipomoea hederacea, IPOHE); assay: as above; details: phytotoxicity rating 0-100 (0 no damage, 100 complete death), 14 days after application
# Method in brief: as §2
# [15] = system: johnsongrass (Sorghum halepense, SORHA); assay: as above; details: phytotoxicity rating 0-100 (0 no damage, 100 complete death), 14 days after application
# Method in brief: as §2
# [16] = system: lambsquarters (Chenopodium album, CHEAL); assay: as above; details: phytotoxicity rating 0-100 (0 no damage, 100 complete death), 14 days after application
# Method in brief: as §2
# [17] = system: large crabgrass (Digitaria sanguinalis, DIGSA); assay: as above; details: phytotoxicity rating 0-100 (0 no damage, 100 complete death), 14 days after application
# Method in brief: as §2
# [18] = system: redroot pigweed (Amaranthus retroflexus, AMARE); assay: as above; details: phytotoxicity rating 0-100 (0 no damage, 100 complete death), 14 days after application
# Method in brief: as §2
# [19] = system: sicklepod (Cassia obtusifolia, CASOB); assay: as above; details: phytotoxicity rating 0-100 (0 no damage, 100 complete death), 14 days after application
# Method in brief: as §2
# [20] = system: velvetleaf (Abutilon theophrasti, ABUTH); assay: as above; details: phytotoxicity rating 0-100 (0 no damage, 100 complete death), 14 days after application
# Method in brief: as §2
# [21] = system: field corn (Zea mays L., var. Dekalb 535, CORN); assay: Post-emerge test, crop safety; details: phytotoxicity rating 0-100 (0 no damage, 100 complete death), 14 days after application
# Method in brief: as §1
# [22] = system: upland rice (Oryza sp., var. Tebonnet, RICE); assay: Post-emerge test, crop safety; details: phytotoxicity rating 0-100 (0 no damage, 100 complete death), 14 days after application
# Method in brief: as §1
structure (smiles),measurement,setting,value
C#CCOc1c(Cl)cc(F)c(-n2c(=O)cc(C(F)(F)F)n(C)c2=O)c1N [Compound 1-19],"Pre-emerge Herbicidal Activity AMARE (phytotoxicity rating, scale 0-100)",[1]; 63 g ai/ha,95
same,"Pre-emerge Herbicidal Activity AMARE (phytotoxicity rating, scale 0-100)",[1]; 250 g ai/ha,100
same,"Pre-emerge Herbicidal Activity ECHCG (phytotoxicity rating, scale 0-100)",[2]; 63 g ai/ha,90
same,"Pre-emerge Herbicidal Activity ECHCG (phytotoxicity rating, scale 0-100)",[2]; 250 g ai/ha,100
same,"Pre-emerge Herbicidal Activity SETVI (phytotoxicity rating, scale 0-100)",[3]; 63 g ai/ha,100
same,"Pre-emerge Herbicidal Activity SETVI (phytotoxicity rating, scale 0-100)",[3]; 250 g ai/ha,100
same,"Pre-emerge Herbicidal Activity IPOHE (phytotoxicity rating, scale 0-100)",[4]; 63 g ai/ha,60
same,"Pre-emerge Herbicidal Activity IPOHE (phytotoxicity rating, scale 0-100)",[4]; 250 g ai/ha,100
same,"Pre-emerge Herbicidal Activity SORHA (phytotoxicity rating, scale 0-100)",[5]; 63 g ai/ha,90
same,"Pre-emerge Herbicidal Activity SORHA (phytotoxicity rating, scale 0-100)",[5]; 250 g ai/ha,100
same,"Pre-emerge Herbicidal Activity CHEAL (phytotoxicity rating, scale 0-100)",[6]; 63 g ai/ha,100
same,"Pre-emerge Herbicidal Activity CHEAL (phytotoxicity rating, scale 0-100)",[6]; 250 g ai/ha,100
same,"Pre-emerge Herbicidal Activity DIGSA (phytotoxicity rating, scale 0-100)",[7]; 63 g ai/ha,95
same,"Pre-emerge Herbicidal Activity DIGSA (phytotoxicity rating, scale 0-100)",[7]; 250 g ai/ha,100
same,"Pre-emerge Herbicidal Activity CASOB (phytotoxicity rating, scale 0-100)",[8]; 63 g ai/ha,90
same,"Pre-emerge Herbicidal Activity CASOB (phytotoxicity rating, scale 0-100)",[8]; 250 g ai/ha,100
same,"Pre-emerge Herbicidal Activity ABUTH (phytotoxicity rating, scale 0-100)",[9]; 63 g ai/ha,100
same,"Pre-emerge Herbicidal Activity ABUTH (phytotoxicity rating, scale 0-100)",[9]; 250 g ai/ha,100
same,"Pre-emerge crop damage CORN (phytotoxicity rating, scale 0-100)",[10]; 63 g ai/ha,50
same,"Pre-emerge crop damage CORN (phytotoxicity rating, scale 0-100)",[10]; 250 g ai/ha,80
same,"Pre-emerge crop damage RICE (phytotoxicity rating, scale 0-100)",[11]; 63 g ai/ha,80
same,"Pre-emerge crop damage RICE (phytotoxicity rating, scale 0-100)",[11]; 250 g ai/ha,95
same,Post-emerge Herbicidal Activity ECHCG,[12]; 63 g ai/ha,0
same,Post-emerge Herbicidal Activity ECHCG,[12]; 250 g ai/ha,80
same,Post-emerge Herbicidal Activity SETVI,[13]; 63 g ai/ha,20
same,Post-emerge Herbicidal Activity SETVI,[13]; 250 g ai/ha,95
same,Post-emerge Herbicidal Activity IPOHE,[14]; 63 g ai/ha,30
same,Post-emerge Herbicidal Activity IPOHE,[14]; 250 g ai/ha,95
same,Post-emerge Herbicidal Activity SORHA,[15]; 63 g ai/ha,0
same,Post-emerge Herbicidal Activity SORHA,[15]; 250 g ai/ha,70
same,Post-emerge Herbicidal Activity CHEAL,[16]; 63 g ai/ha,30
same,Post-emerge Herbicidal Activity CHEAL,[16]; 250 g ai/ha,90
same,Post-emerge Herbicidal Activity DIGSA,[17]; 63 g ai/ha,0
same,Post-emerge Herbicidal Activity DIGSA,[17]; 250 g ai/ha,10
same,Post-emerge Herbicidal Activity AMARE,[18]; 63 g ai/ha,30
same,Post-emerge Herbicidal Activity AMARE,[18]; 250 g ai/ha,70
same,Post-emerge Herbicidal Activity CASOB,[19]; 63 g ai/ha,10
same,Post-emerge Herbicidal Activity CASOB,[19]; 250 g ai/ha,30
same,Post-emerge Herbicidal Activity ABUTH,[20]; 63 g ai/ha,100
same,Post-emerge Herbicidal Activity ABUTH,[20]; 250 g ai/ha,100
same,Post-emerge Herbicidal Activity CORN (crop damage),[21]; 63 g ai/ha,5
same,Post-emerge Herbicidal Activity CORN (crop damage),[21]; 250 g ai/ha,45
same,Post-emerge Herbicidal Activity RICE (crop damage),[22]; 63 g ai/ha,25
same,Post-emerge Herbicidal Activity RICE (crop damage),[22]; 250 g ai/ha,80
